Results as given in ChEMBL document CHEMBL1141380 (J Med Chem, 2007).
Values after ≈ are worked out from the molar mass of the structure shown. Blank lines part the entries; values can stand above or below the compound they belong to.

What was measured:
[1] = target: Vascular endothelial growth factor receptor 2 (Homo sapiens, UniProt P35968)
Description: Inhibition of KDR by HTRF assay

[2] = Clearance in iv dosed rat; format: ADME, organism-based; details: in vivo
[3] = target: T1, Angiopoietin-1 receptor (Homo sapiens, UniProt Q02763); test: Inhibition of Tie2 by HTRF assay
[4] = target: T1, Angiopoietin-1 receptor; test: Inhibition of angiopoietin-1-stimulated Tie2 phosphorylation in EA.hy926 cells; format: functional, cell-based
[5] = target: Proto-oncogene tyrosine-protein kinase Src (Homo sapiens, UniProt P12931); test: inhibition of Src
[6] = target: Mitogen-activated protein kinase 14 (Homo sapiens, UniProt Q16539); test: Inhibition of p38alpha
[7] = target: Tyrosine-protein kinase Lyn (Homo sapiens, UniProt P07948); test: Inhibition of Lyn
[8] = target: Mast/stem cell growth factor receptor Kit (Homo sapiens, UniProt P10721); test: Inhibition of cKit
[9] = target: Ephrin type-B receptor 4 (Homo sapiens, UniProt P54760); test: Inhibition of EPHB4
[10] = target: Vascular endothelial growth factor receptor 2 and tyrosine-protein kinase TIE-2 (KDR and TIE2) (Homo sapiens) (UniProt P35968+Q02763); test: Selectivity for Tie2 over KDR; format: protein assay
[11] = Solubility in 0.01N HCl; format: physicochemical
[12] = Oral bioavailability in Sprague-Dawley rat at 10 mg/kg, po; format: ADME, organism-based; details: in vivo
[13] = target: Aurora kinase A (Homo sapiens, UniProt O14965); test: Inhibition of AurA
[14] = target: RAC-alpha serine/threonine-protein kinase (Homo sapiens, UniProt P31749); test: Inhibition of PKBalpha
[15] = target: Angiopoietin-1 receptor (Mus musculus) (UniProt Q02858); test: Inhibition of angiopoietin-1-induced Tie2 phosphorylation in CD1 NU/NU mouse at 100 mg/kg after 3 hrs; format: functional, organism-based; set-up: dose 100 mg/kg
[16] = target: Tyrosine-protein kinase Fgr (Homo sapiens, UniProt P09769); test: Inhibition of Fgr
[17] = Plasma concentration in CD1 NU/NU mouse at 100 mg/kg after 3 hrs; format: ADME, organism-based; set-up: dose 100 mg/kg
[18] = target: Insulin-like growth factor 1 receptor (Homo sapiens, UniProt P08069); test: Inhibition of IGFR1
[19] = target: Tyrosine-protein kinase CSK (Homo sapiens, UniProt P41240); test: Inhibition of CSK
[20] = target: Tyrosine-protein kinase Lck (Homo sapiens, UniProt P06239); test: Inhibition of Lck
[21] = Plasma protein binding in mouse; format: ADME, cell-free; details: read-out: PPB (converted)
[22] = Clearance in Sprague-Dawley rat at 1 mg/kg, iv; format: ADME, organism-based; set-up: dose 1 mg/kg, route intravenous; details: in vivo
[23] = target: Cyclin-dependent kinase 5 (Homo sapiens, UniProt Q00535); test: Inhibition of CDK5
[24] = target: Tyrosine-protein kinase ABL1 (Homo sapiens, UniProt P00519); test: Inhibition of Abl
[25] = target: Tyrosine-protein kinase SYK (Homo sapiens, UniProt P43405); test: Inhibition of SYK
[26] = Dissociation constant, pKa of the compound; format: physicochemical
[27] = target: Mitogen-activated protein kinase 10 (Homo sapiens, UniProt P53779); test: inhibition of JNK3
[28] = Tmax in Sprague-Dawley rat at 10 mg/kg, po; format: ADME, organism-based; set-up: dose 10 mg/kg, route oral; details: in vivo
[29] = target: Tyrosine-protein kinase ZAP-70 (Homo sapiens, UniProt P43403); test: Inhibition of ZAP70
[30] = target: Proto-oncogene tyrosine-protein kinase receptor Ret (Homo sapiens, UniProt P07949); test: Inhibition of RET
[31] = target: High affinity nerve growth factor receptor (Homo sapiens, UniProt P04629); test: Inhibition of TrkA
[32] = Volume of distribution in Sprague-Dawley rat at 1 mg/kg, iv; format: ADME, organism-based; set-up: dose 1 mg/kg, route intravenous; details: in vivo, read-out: Vss
[33] = target: Platelet-derived growth factor receptor beta (Homo sapiens, UniProt P09619); test: Inhibition of PDGFR
[34] = AUC (0-infinity) in Sprague-Dawley rat at 10 mg/kg, po; format: ADME, organism-based; set-up: time infinity, dose 10 mg/kg, route oral; details: plasma
[35] = target: Tyrosine-protein kinase ITK/TSK (Homo sapiens, UniProt Q08881); test: Inhibition of Itk
[36] = Plasma protein binding in rat; format: ADME, cell-free; details: read-out: PPB (converted)
[37] = target: Angiopoietin-1 receptor (Mus musculus) (UniProt Q02858); test: Inhibition of angiopoietin-1-induced Tie2 phosphorylation in CD1 NU/NU mouse at 100 mg/kg after 8 hrs; format: functional, organism-based; set-up: dose 100 mg/kg
[38] = Plasma concentration in CD1 NU/NU mouse at 100 mg/kg after 12 hrs; format: ADME, organism-based; set-up: dose 100 mg/kg
[39] = Solubility in simulated intestinal fluid at pH 6.8; format: physicochemical
[40] = target: Tyrosine-protein kinase JAK3 (Homo sapiens, UniProt P52333); test: Inhibition of Jak3
[41] = target: Macrophage colony-stimulating factor 1 receptor (Homo sapiens, UniProt P07333); test: Inhibition of c-fms
[42] = Plasma concentration in CD1 NU/NU mouse at 100 mg/kg after 8 hrs; format: ADME, organism-based; set-up: dose 100 mg/kg
[43] = Half life in Sprague-Dawley rat at 1 mg/kg, iv; format: ADME, organism-based; set-up: dose 1 mg/kg, route intravenous; details: in vivo
[44] = Solubility in phosphate buffer at pH 7.0; format: physicochemical
[45] = Cmax in Sprague-Dawley rat at 10 mg/kg, po; format: ADME, organism-based; set-up: dose 10 mg/kg, route oral; details: in vivo

Sequence of Vascular endothelial growth factor receptor 2 (P35968 whole entry): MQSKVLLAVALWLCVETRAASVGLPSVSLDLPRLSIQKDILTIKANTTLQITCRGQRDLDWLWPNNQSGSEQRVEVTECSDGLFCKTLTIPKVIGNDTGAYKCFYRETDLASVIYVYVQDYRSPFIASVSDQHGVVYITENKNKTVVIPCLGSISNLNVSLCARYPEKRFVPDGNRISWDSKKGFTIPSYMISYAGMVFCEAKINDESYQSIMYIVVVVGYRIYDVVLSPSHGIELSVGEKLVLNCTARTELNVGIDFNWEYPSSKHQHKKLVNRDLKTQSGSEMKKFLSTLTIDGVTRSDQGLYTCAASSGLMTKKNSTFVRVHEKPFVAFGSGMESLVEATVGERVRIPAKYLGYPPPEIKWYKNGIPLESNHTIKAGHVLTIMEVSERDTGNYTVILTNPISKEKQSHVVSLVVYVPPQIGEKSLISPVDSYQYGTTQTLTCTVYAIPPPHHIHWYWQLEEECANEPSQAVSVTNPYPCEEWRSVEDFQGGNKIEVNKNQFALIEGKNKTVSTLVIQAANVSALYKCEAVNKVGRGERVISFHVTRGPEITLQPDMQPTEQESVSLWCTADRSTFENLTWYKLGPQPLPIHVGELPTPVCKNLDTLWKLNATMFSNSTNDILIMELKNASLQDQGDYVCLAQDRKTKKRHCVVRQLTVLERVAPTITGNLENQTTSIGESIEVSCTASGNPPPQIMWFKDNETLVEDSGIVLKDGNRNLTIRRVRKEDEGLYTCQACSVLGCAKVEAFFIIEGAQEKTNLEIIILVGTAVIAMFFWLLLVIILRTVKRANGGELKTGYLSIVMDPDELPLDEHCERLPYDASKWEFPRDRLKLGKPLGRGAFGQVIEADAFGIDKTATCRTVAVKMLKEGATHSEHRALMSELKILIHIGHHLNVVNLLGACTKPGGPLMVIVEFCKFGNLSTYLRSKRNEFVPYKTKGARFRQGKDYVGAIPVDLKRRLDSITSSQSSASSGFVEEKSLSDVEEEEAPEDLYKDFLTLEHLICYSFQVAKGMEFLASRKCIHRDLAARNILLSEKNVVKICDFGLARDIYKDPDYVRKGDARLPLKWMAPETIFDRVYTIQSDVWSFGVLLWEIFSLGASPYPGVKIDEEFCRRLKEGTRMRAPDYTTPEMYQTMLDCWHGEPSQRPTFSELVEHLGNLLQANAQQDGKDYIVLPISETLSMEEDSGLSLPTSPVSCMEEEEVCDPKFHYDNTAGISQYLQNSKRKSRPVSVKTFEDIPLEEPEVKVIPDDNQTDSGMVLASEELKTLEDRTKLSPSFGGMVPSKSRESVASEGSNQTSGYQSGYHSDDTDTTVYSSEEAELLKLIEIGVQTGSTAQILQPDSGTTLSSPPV
T1 sequence (Q02763 whole entry): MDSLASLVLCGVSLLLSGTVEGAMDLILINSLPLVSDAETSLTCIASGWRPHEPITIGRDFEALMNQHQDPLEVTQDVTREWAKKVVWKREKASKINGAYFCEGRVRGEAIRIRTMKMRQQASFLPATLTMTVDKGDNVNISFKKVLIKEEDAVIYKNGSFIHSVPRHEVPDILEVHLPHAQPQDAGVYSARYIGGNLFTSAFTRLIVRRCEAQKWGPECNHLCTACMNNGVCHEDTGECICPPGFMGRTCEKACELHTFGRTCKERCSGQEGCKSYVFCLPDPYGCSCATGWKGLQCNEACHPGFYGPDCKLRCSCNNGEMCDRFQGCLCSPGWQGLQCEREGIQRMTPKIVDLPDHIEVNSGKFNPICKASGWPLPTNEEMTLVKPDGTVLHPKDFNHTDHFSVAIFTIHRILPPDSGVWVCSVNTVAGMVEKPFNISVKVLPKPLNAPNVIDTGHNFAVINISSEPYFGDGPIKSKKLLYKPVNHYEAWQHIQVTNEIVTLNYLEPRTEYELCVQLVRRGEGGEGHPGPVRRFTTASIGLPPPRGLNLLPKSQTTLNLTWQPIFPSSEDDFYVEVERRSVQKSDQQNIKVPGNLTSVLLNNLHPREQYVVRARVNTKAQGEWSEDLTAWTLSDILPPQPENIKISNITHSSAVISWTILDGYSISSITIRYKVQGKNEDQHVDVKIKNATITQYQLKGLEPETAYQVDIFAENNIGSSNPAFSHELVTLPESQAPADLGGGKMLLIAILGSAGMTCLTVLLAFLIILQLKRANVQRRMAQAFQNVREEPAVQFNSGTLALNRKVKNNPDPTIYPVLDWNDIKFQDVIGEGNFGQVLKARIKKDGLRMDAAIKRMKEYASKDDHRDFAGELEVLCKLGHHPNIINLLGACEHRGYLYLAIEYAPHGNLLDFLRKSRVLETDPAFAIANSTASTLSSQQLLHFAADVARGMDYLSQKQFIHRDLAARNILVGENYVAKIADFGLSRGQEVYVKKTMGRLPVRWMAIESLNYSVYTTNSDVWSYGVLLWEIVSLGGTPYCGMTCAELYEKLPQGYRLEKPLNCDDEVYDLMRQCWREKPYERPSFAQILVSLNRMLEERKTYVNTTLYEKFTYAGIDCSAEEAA
Sequence of Proto-oncogene tyrosine-protein kinase Src (P12931 2-536 limits assumed): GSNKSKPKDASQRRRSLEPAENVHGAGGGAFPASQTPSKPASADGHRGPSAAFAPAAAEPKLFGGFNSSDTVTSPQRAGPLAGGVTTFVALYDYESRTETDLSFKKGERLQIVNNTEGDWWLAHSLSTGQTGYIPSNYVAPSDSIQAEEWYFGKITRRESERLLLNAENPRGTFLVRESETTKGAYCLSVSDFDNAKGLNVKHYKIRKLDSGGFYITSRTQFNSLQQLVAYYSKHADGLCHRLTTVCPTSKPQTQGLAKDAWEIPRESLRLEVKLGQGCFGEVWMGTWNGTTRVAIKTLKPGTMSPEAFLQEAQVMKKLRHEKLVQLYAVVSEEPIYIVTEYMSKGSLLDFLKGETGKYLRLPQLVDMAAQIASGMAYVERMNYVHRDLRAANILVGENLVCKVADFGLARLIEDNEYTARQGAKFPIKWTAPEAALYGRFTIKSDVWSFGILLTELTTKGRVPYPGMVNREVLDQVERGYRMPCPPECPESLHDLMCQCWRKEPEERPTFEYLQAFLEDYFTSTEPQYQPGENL
Sequence of Ephrin type-B receptor 4 (P54760 whole entry): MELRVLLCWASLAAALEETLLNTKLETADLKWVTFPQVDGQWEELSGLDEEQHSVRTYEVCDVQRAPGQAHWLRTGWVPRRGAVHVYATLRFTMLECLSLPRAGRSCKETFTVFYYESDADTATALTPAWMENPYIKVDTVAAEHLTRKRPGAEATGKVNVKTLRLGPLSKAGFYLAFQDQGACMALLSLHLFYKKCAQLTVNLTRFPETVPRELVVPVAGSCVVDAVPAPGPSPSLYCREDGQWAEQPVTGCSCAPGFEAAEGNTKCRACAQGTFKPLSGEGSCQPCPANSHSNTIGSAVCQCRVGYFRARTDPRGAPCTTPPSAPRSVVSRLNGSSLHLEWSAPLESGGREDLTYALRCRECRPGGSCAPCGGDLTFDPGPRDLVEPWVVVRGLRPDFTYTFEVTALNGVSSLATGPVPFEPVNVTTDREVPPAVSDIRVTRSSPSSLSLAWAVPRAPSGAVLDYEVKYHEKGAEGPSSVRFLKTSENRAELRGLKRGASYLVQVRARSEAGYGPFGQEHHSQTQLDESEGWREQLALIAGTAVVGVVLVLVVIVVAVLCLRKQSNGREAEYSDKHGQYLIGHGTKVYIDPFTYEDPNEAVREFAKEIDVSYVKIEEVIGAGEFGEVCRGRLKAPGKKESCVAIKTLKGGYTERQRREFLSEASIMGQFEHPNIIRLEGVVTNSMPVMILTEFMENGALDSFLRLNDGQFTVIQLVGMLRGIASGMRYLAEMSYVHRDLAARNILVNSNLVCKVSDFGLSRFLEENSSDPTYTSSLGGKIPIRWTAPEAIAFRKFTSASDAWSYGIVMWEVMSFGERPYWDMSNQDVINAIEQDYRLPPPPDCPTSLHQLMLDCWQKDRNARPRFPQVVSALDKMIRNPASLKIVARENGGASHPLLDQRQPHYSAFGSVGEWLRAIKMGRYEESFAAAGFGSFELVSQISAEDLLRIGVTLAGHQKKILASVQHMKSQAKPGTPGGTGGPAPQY
Sequence of Angiopoietin-1 receptor (Mus musculus) (Q02858 whole entry): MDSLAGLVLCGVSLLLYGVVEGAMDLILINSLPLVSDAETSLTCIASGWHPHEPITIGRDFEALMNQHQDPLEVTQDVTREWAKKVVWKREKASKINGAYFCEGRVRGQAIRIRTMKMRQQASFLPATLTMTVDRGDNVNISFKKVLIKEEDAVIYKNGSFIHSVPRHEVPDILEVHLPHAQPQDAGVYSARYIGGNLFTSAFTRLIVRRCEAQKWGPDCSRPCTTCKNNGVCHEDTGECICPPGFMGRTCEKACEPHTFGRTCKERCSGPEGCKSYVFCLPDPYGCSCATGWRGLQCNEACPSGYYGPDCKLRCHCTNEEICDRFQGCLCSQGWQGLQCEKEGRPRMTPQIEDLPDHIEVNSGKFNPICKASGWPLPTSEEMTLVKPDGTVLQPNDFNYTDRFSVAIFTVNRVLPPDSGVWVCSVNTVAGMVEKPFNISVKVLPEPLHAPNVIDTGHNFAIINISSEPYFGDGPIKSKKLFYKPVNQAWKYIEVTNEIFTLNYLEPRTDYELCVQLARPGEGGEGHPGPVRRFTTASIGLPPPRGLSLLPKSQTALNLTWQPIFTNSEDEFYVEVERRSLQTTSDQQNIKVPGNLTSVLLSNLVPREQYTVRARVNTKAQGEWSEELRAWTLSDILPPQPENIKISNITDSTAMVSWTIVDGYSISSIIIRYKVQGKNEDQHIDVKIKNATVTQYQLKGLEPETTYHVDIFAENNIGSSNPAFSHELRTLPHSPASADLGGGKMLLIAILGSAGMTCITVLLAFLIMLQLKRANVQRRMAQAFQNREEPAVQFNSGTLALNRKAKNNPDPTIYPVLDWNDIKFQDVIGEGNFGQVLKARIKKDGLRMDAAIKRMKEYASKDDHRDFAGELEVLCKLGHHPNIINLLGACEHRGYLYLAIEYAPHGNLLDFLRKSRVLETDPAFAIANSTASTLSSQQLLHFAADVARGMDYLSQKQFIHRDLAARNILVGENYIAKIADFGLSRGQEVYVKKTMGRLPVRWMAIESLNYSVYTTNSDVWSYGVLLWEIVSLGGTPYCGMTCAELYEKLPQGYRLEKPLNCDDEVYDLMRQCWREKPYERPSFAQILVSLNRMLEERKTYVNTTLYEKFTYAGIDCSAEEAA

Structure (SMILES): CNc1ncnc(-c2cccnc2Oc2ccc(F)c(C(=O)Nc3cc(C4CC4)ccc3N(C)CCCN(C)C)c2)n1
IC50 [1]: > 25 µM
IC50 [3]: 0.013 µM
IC50 [4]: 0.039 µM
clearance [2]: 45.5 mL/min/kg

Structure (SMILES): Cc1ccc(C(=O)Nc2cccc(C(F)(F)F)c2)cc1Oc1ncccc1-c1ccncn1
IC50 [1]: 0.059 µM

Structure (SMILES): CNc1nccc(-c2cccnc2Oc2cc(C(=O)Nc3cc(C(F)(F)F)ccc3N3CCCCC3)ccc2Cl)n1
IC50 [1]: 0.675 µM
clearance [2]: 21.6 mL/min/kg

Structure (SMILES): Cc1ccc(C(=O)Nc2cccc(C(F)(F)F)c2)cc1Nc1ncccc1-c1ccncn1
IC50 [1]: 0.004 µM
IC50 [5]: < 0.025 µM
IC50 [6]: < 0.025 µM
IC50 [7]: < 0.025 µM
IC50 [8]: < 0.025 µM
IC50 [9]: < 0.025 µM

Structure (SMILES): CNc1ncnc(-c2cccnc2Oc2ccc(F)c(C(=O)Nc3cc(C(F)(F)F)ccc3N3CCCCC3)c2)n1
IC50 [1]: > 25 µM

Structure (SMILES): Cc1ccc(C(=O)Nc2ccc(C(F)(F)F)cc2)cc1Oc1ncccc1-c1ccncn1
IC50 [1]: 0.705 µM
solubility [11]: 5 µg/mL (≈ 11.1 µM)

Structure (SMILES): Cc1ccc(C(=O)Nc2cc(C(F)(F)F)ccc2N2CCCCC2)cc1Oc1ncccc1-c1ccncn1
IC50 [1]: 1.3 µM

The remaining lines, values ahead:

IC50 [1]: 0.07 µM
clearance [2]: 58.2 mL/min/kg
Structure (SMILES): CNc1nccc(-c2cccnc2Oc2cc(C(=O)Nc3cc(C4CCCCC4)ccc3OC)ccc2C)n1

IC50 [1]: > 25 µM
IC50 [3]: > 25 µM
Structure (SMILES): COc1ccc(C2CCCCC2)cc1NC(=O)c1ccc(C)c(Oc2ncccc2-c2ncnc3cc(OC)c(OC)cc23)c1

IC50 [3]: ≥ 25 µM
Structure (SMILES): O=C(Nc1ccc(Oc2ccccc2)cc1)c1cccnc1NCc1ccncc1

IC50 [1]: > 25 µM
clearance [2]: 98.3 mL/min/kg
Structure (SMILES): CNc1cc(-c2cccnc2Oc2cc(C(=O)Nc3cc(C4CCCCC4)ccc3OC)ccc2C)ccn1

IC50 [1]: > 8 µM
clearance [2]: 70 mL/min/kg
Structure (SMILES): CNc1ncnc(-c2cccnc2Oc2ccc(F)c(C(=O)Nc3cc(C(C)C)ccc3N(C)CCCN(C)C)c2)n1

IC50 [1]: > 25 µM
Selectivity ratio [10]: > 100
IC50 [3]: 0.181 µM
Structure (SMILES): Cc1ccc(C(=O)Nc2cc(C(F)(F)F)ccc2N2CCCCC2)cc1Nc1ncccc1-c1ccncn1

IC50 [1]: 0.058 µM
Structure (SMILES): COc1ccc(C(F)(F)F)cc1NC(=O)c1ccc(C)c(Nc2ncccc2-c2ccncn2)c1

IC50 [1]: 0.046 µM
clearance [2]: 12 mL/min/kg
bioavailability [12]: 32%
Structure (SMILES): CNc1nccc(-c2cccnc2Oc2ccc(F)c(C(=O)Nc3cc(C(F)(F)F)ccc3N(C)CCCN(C)C)c2)n1

IC50 [13]: 25 µM
IC50 [1]: 7.8 µM
IC50 [14]: 100 µM
IC50 [5]: 5.75 µM
inhibition [15]: 94%
IC50 [16]: 8.3 µM
IC50 [6]: 3.7 µM
concentration at 3 h [17]: 3.97 µM
IC50 [18]: 0.927 µM
IC50 [19]: 25 µM
IC50 [20]: 1.1 µM
fraction unbound [21]: 0.02
clearance [22]: 21.7 mL/min/kg
IC50 [23]: 100 µM
IC50 [24]: 1.28 µM
IC50 [25]: 25 µM
pKa [26]: 9.5
IC50 [3]: 0.03 µM
IC50 [4]: 0.062 µM
IC50 [27]: 40 µM
IC50 [7]: 4.9 µM
Tmax [28]: 2 h
IC50 [29]: 25 µM
IC50 [30]: 8.3 µM
clearance [2]: 21.7 mL/min/kg
IC50 [31]: 8.3 µM
Vd [32]: 2.56 L/kg
IC50 [33]: 1.94 µM
AUC(0-inf) [34]: 2640 ng·h/mL
IC50 [35]: 25 µM
fraction unbound [36]: 0.07
inhibition [37]: 25%
concentration at 12 h [38]: 1.59 µM
solubility [11]: 1320 µg/mL (≈ 2210 µM)
solubility [39]: 340 µg/mL (≈ 568 µM)
bioavailability [12]: 31%
IC50 [40]: 25 µM
IC50 [41]: 25 µM
concentration at 8 h [42]: 3.03 µM
half-life [43]: 1.6 h
solubility [44]: 44 µg/mL (≈ 73.5 µM)
IC50 [9]: 8.3 µM
Cmax [45]: 520 ng/mL
Structure (SMILES): CNc1ncnc(-c2cccnc2Oc2ccc(F)c(C(=O)Nc3cc(C(F)(F)F)ccc3N(C)CCCN(C)C)c2)n1
